Paper PMC11845477, “Exploring the principles behind antibiotics with limited resistance” (Nature Communications, 2025)

System: P. aeruginosa ATCC BAA-3107 (SEN) and P. aeruginosa LESB58 (MDR)
Assay: Adaptive laboratory evolution (ALE), relative MIC of evolved lines
Assay type: cell-based, Pseudomonas aeruginosa
Source text: Using the same set of bacterial strains, we initiated adaptive laboratory evolution with the aim to maximize the level of antibiotic resistance in the populations achieved during a longer, but fixed time period.
An established protocol for adaptive laboratory evolution[46],[73] was followed to propagate populations with the highest resistance levels. Starting with an antibiotic concentration that caused approximately 50% growth inhibition, ten parallel populations for each antibiotic-ancestor strain combination were grown for 72 hours at 37 °C with continuous shaking (300 RPM). MHB broth medium was used unless stated otherwise. After each incubation, 20 µl of each culture was transferred to four new wells containing fresh medium with increasing antibiotic concentrations (0.5×, 1×, 1.5×, and 2.5× the previous concentration) in a chessboard layout to monitor potential cross-contamination. Growth was monitored by measuring OD600 using a Biotek Synergy 2 microplate reader, and only populations grown in the highest drug concentration with an OD600 > 0.2 were transferred further.
A robotic liquid handling system was used to automatically prepare a 11 to 16-step serial dilution in 384-well microtiter plates (Greiner). A final concentration of 5 × 10^5 bacterial cells per mL were inoculated into each well containing 60 µL MHB medium. Bacterial cultures were incubated at 37 °C with continuous shaking (Infors shaker, 900 rpm with 3 mm throw) for 18 hours (2 replicates from each). Cell growth was monitored by measuring the optical density (OD600 values, using Biotek Synergy microplate reader). MIC was defined as the antibiotic concentration of complete growth inhibition (i.e., OD600 < 0.05). Relative MIC was calculated as follows:1 relativeMIC=MICevolved/MICancestor […]
Supplementary Figure 4. Resistance levels following adaptive laboratory evolution across bacterial strains. The level of resistance was measured as the fold change in relative MIC between evolved and ancestral strains after ~60 days of adaptive laboratory evolution. Data are grouped by bacterial strain (A. baumannii (AB), E. coli (EC), K. pneumoniae (KP), and P. aeruginosa (PA)) and categorized as either multidrug-resistant (MDR) or sensitive (SEN). Each data point represents a laboratory evolved line, and boxplots show the median, first and third quartiles, with whiskers indicating the 5th and 95th percentiles.
Statistical analysis was performed using two-sided Dunn’s post-hoc test with Benjamini-Hochberg correction for multiple comparisons (****/ ***/ **/ * indicates p < 0.0001/ 0.001/ 0.01/ 0.05). For detailed information on antibiotic and bacterial species, see Supplementary Table 1. For mode of action groups, refer to Table 1. Source data are provided as a Source Data file.

[1] = PA-SEN (ATCC BAA 3107), evolved line 2
[2] = PA-SEN (ATCC BAA 3107), evolved line 2, MIC of evolved line / MIC of ancestor
[3] = PA-SEN (ATCC BAA 3107), evolved line 3
[4] = PA-SEN (ATCC BAA 3107), evolved line 3, MIC of evolved line / MIC of ancestor
[5] = PA-SEN (ATCC BAA 3107), evolved line 4
[6] = PA-SEN (ATCC BAA 3107), evolved line 4, MIC of evolved line / MIC of ancestor
[7] = PA-SEN (ATCC BAA 3107), evolved line 5
[8] = PA-SEN (ATCC BAA 3107), evolved line 5, MIC of evolved line / MIC of ancestor
[9] = PA-SEN (ATCC BAA 3107), evolved line 6
[10] = PA-SEN (ATCC BAA 3107), evolved line 6, MIC of evolved line / MIC of ancestor
[11] = PA-SEN (ATCC BAA 3107), evolved line 7
[12] = PA-SEN (ATCC BAA 3107), evolved line 7, MIC of evolved line / MIC of ancestor
[13] = PA-SEN (ATCC BAA 3107), evolved line 8
[14] = PA-SEN (ATCC BAA 3107), evolved line 8, MIC of evolved line / MIC of ancestor
[15] = PA-SEN (ATCC BAA 3107), evolved line 9
[16] = PA-SEN (ATCC BAA 3107), evolved line 9, MIC of evolved line / MIC of ancestor
[17] = PA-SEN (ATCC BAA 3107), evolved line 10
[18] = PA-SEN (ATCC BAA 3107), evolved line 10, MIC of evolved line / MIC of ancestor
[19] = PA-SEN (Pseudomonas aeruginosa ATCC BAA 3107), evolved line 7 adapted to the named antibiotic
[20] = Pseudomonas aeruginosa ATCC BAA 3107 (PA-SEN), evolved line 2
[21] = Pseudomonas aeruginosa ATCC BAA 3107 (PA-SEN), evolved line 3
[22] = Pseudomonas aeruginosa ATCC BAA 3107 (PA-SEN), evolved line 4
[23] = Pseudomonas aeruginosa ATCC BAA 3107 (PA-SEN), evolved line 5
[24] = Pseudomonas aeruginosa ATCC BAA 3107 (PA-SEN), evolved line 6
[25] = Pseudomonas aeruginosa ATCC BAA 3107 (PA-SEN), evolved line 7
[26] = Pseudomonas aeruginosa ATCC BAA 3107 (PA-SEN), evolved line 8
[27] = Pseudomonas aeruginosa ATCC BAA 3107 (PA-SEN), evolved line 9
[28] = Pseudomonas aeruginosa ATCC BAA 3107 (PA-SEN), evolved line 10

## Nc1nc(-n2cc(C(=O)O)c(=O)c3cc(F)c(N4CC(O)C4)c(Cl)c32)c(F)cc1F [Delafloxacin]
PA-MDR (LESB 58), evolved line 1, MIC of evolved line / MIC of ancestor
  Relative MIC: 64
PA-MDR (LESB 58), evolved line 2, MIC of evolved line / MIC of ancestor
  Relative MIC: 64
PA-MDR (LESB 58), evolved line 3, MIC of evolved line / MIC of ancestor
  Relative MIC: 64
PA-MDR (LESB 58), evolved line 4
  MIC of evolved line: 128 µg/mL
PA-MDR (LESB 58), evolved line 4, MIC of evolved line / MIC of ancestor
  Relative MIC: 64
PA-MDR (LESB 58), evolved line 5
  MIC of evolved line: 128 µg/mL
PA-MDR (LESB 58), evolved line 5, MIC of evolved line / MIC of ancestor
  Relative MIC: 64
PA-MDR (LESB 58), evolved line 6
  MIC of evolved line: 64 µg/mL
PA-MDR (LESB 58), evolved line 6, MIC of evolved line / MIC of ancestor
  Relative MIC: 32
PA-MDR (LESB 58), evolved line 7
  MIC of evolved line: 128 µg/mL
PA-MDR (LESB 58), evolved line 7, MIC of evolved line / MIC of ancestor
  Relative MIC: 64
PA-MDR (LESB 58), evolved line 8
  MIC of evolved line: 128 µg/mL
PA-MDR (LESB 58), evolved line 8, MIC of evolved line / MIC of ancestor
  Relative MIC: 64
PA-MDR (LESB 58), evolved line 9
  MIC of evolved line: 128 µg/mL
PA-MDR (LESB 58), evolved line 9, MIC of evolved line / MIC of ancestor
  Relative MIC: 64
PA-MDR (LESB 58), evolved line 10
  MIC of evolved line: 64 µg/mL
PA-MDR (LESB 58), evolved line 10, MIC of evolved line / MIC of ancestor
  Relative MIC: 32
PA-MDR (Pseudomonas aeruginosa LESB 58), evolved line 2 adapted to the named antibiotic
  Relative MIC (log10): 1.806
PA-MDR (Pseudomonas aeruginosa LESB 58), evolved line 4 adapted to the named antibiotic
  Relative MIC (log10): 1.806
PA-MDR (Pseudomonas aeruginosa LESB 58), evolved line 6 adapted to the named antibiotic
  Relative MIC (log10): 1.505
PA-MDR (Pseudomonas aeruginosa LESB 58), evolved line 7 adapted to the named antibiotic
  Relative MIC (log10): 1.806
PA-MDR (Pseudomonas aeruginosa LESB 58), evolved line 9 adapted to the named antibiotic
  Relative MIC (log10): 1.806
PA-MDR LESB 58, evolved line 1
  MIC of evolved line: 128 µg/mL
PA-MDR LESB 58, evolved line 2
  MIC of evolved line: 128 µg/mL
PA-MDR LESB 58, evolved line 3
  MIC of evolved line: 128 µg/mL
[1]
  MIC of evolved line: 32 µg/mL
[2]
  Relative MIC: 2048
[3]
  MIC of evolved line: 64 µg/mL
[4]
  Relative MIC: 4096
[5]
  MIC of evolved line: 32 µg/mL
[6]
  Relative MIC: 2048
[7]
  MIC of evolved line: 32 µg/mL
[8]
  Relative MIC: 2048
[9]
  MIC of evolved line: 64 µg/mL
[10]
  Relative MIC: 4096
[11]
  MIC of evolved line: 32 µg/mL
[12]
  Relative MIC: 2048
[13]
  MIC of evolved line: 32 µg/mL
[14]
  Relative MIC: 2048
[15]
  MIC of evolved line: 32 µg/mL
[16]
  Relative MIC: 2048
[17]
  MIC of evolved line: 32 µg/mL
[18]
  Relative MIC: 2048
PA-SEN (Pseudomonas aeruginosa ATCC BAA 3107), evolved line 2 adapted to the named antibiotic
  Relative MIC (log10): 3.311
[19]
  Relative MIC (log10): 3.311
PA-SEN (Pseudomonas aeruginosa ATCC BAA 3107), evolved line 8 adapted to the named antibiotic
  Relative MIC (log10): 3.311
PA-SEN (Pseudomonas aeruginosa ATCC BAA 3107), evolved line 10 adapted to the named antibiotic
  Relative MIC (log10): 3.311
[20]
  Relative MIC: 2048
[21]
  Relative MIC: 4096
[22]
  Relative MIC: 2048
[23]
  Relative MIC: 2048
[24]
  Relative MIC: 4096
[25]
  Relative MIC: 2048
[26]
  Relative MIC: 2048
[27]
  Relative MIC: 2048
[28]
  Relative MIC: 2048
Pseudomonas aeruginosa LESB 58 (PA-MDR), evolved line 1
  Relative MIC: 64
Pseudomonas aeruginosa LESB 58 (PA-MDR), evolved line 2
  Relative MIC: 64
Pseudomonas aeruginosa LESB 58 (PA-MDR), evolved line 3
  Relative MIC: 64
Pseudomonas aeruginosa LESB 58 (PA-MDR), evolved line 4
  Relative MIC: 64
Pseudomonas aeruginosa LESB 58 (PA-MDR), evolved line 5
  Relative MIC: 64
Pseudomonas aeruginosa LESB 58 (PA-MDR), evolved line 6
  Relative MIC: 32
Pseudomonas aeruginosa LESB 58 (PA-MDR), evolved line 7
  Relative MIC: 64
Pseudomonas aeruginosa LESB 58 (PA-MDR), evolved line 8
  Relative MIC: 64
Pseudomonas aeruginosa LESB 58 (PA-MDR), evolved line 9
  Relative MIC: 64
Pseudomonas aeruginosa LESB 58 (PA-MDR), evolved line 10
  Relative MIC: 32

## C[C@H]1c2cccc(O)c2C(=O)C2=C(O)[C@]3(O)C(=O)C(C(N)=O)=C(O)[C@@H](N(C)C)[C@@H]3[C@@H](O)[C@@H]21 [Doxycycline]
PA-SEN (ATCC BAA 3107), evolved line 1, MIC of evolved line / MIC of ancestor
  Relative MIC: 64
[1]
  MIC of evolved line: 256 µg/mL
[2]
  Relative MIC: 64
[3]
  MIC of evolved line: 256 µg/mL
[4]
  Relative MIC: 64
[5]
  MIC of evolved line: 256 µg/mL
[6]
  Relative MIC: 64
[7]
  MIC of evolved line: 256 µg/mL
[8]
  Relative MIC: 64
[9]
  MIC of evolved line: 256 µg/mL
[10]
  Relative MIC: 64
[11]
  MIC of evolved line: 256 µg/mL
[12]
  Relative MIC: 64
[13]
  MIC of evolved line: 256 µg/mL
[14]
  Relative MIC: 64
[15]
  MIC of evolved line: 256 µg/mL
[16]
  Relative MIC: 64
[17]
  MIC of evolved line: 256 µg/mL
[18]
  Relative MIC: 64
PA-SEN (Pseudomonas aeruginosa ATCC BAA 3107), evolved line 1 adapted to the named antibiotic
  Relative MIC (log10): 1.806
PA-SEN (Pseudomonas aeruginosa ATCC BAA 3107), evolved line 3 adapted to the named antibiotic
  Relative MIC (log10): 1.806
PA-SEN (Pseudomonas aeruginosa ATCC BAA 3107), evolved line 5 adapted to the named antibiotic
  Relative MIC (log10): 1.806
[19]
  Relative MIC (log10): 1.806
PA-SEN (Pseudomonas aeruginosa ATCC BAA 3107), evolved line 9 adapted to the named antibiotic
  Relative MIC (log10): 1.806
PA-SEN ATCC BAA 3107, evolved line 1
  MIC of evolved line: 256 µg/mL
Pseudomonas aeruginosa ATCC BAA 3107 (PA-SEN), evolved line 1
  Relative MIC: 64
[20]
  Relative MIC: 64
[21]
  Relative MIC: 64
[22]
  Relative MIC: 64
[23]
  Relative MIC: 64
[24]
  Relative MIC: 64
[25]
  Relative MIC: 64
[26]
  Relative MIC: 64
[27]
  Relative MIC: 64
[28]
  Relative MIC: 64
